# Measured values from US20200368260A1, “USE OF BENZOPYRAN COMPOUND IN PREPARATION OF PRODUCT FOR REGULATING LIPID METABOLISM AND COMPOSITION OF THE SAME” (priority 2019, published 2020).
# Key:
# Type in all cases: cell-based, human
# p62 [1] = assay: Western blotting, protein expression in oleic acid induced HepG2 cells; settings: high dose group
# Experimental: (§1) The culture, model establishment and drug treatment manners of the cells were operated according to 1.2.3. After completion, cells were collected, cytoplasmic proteins were extracted, and protein electrophoresis was conducted after quantification. Particularly the following methods were used:
# (§2) When the cell confluence reached 70%, 0.5 mM oleic acid was added to treat the cells for 24 h. After completion, the cells were collected and the cytoplasmic protein was extracted, and the protein electrophoresis was conducted after quantification. The electrophoresis method was as follows:
# (§3) After cell culture was completed, the culture plate was taken out, the culture medium in the well was discarded, the pellet was washed twice with PBS, placed onto an ice bath, and added with 100 μL of a protein lysis buffer (RIPA) (PMSF was added into the cell lysis buffer at 1:1000 within few minutes before the use, with a final concentration of 1 mM) per well. After the cells were lysed for about […], the cells were scraped off with a cell scraper, pipetted into a 1.5 mL centrifuge tube (which could be crushed with an ultrasonic cell disruptor for 3-5 times), then centrifuged at 12,000 rpm under 4° C. for 15-20 mM. The supernatant was taken and transferred into a new centrifuge tube for protein quantification or storage at −80° C.
# (§4) Theprotein content was determined by a BCA method, and the operation method was carried out according to the instructions of the kit. After the protein concentration was measured, the protein sample was added with a 5× loading buffer and mixed uniformly at 1:4, then subjected to water bath at 100° C. for […] (entangling with a sealing film to prevent bouncing off), and stored at 4° C.
# (§5) The specific operation method of protein electrophoresis was in accordance with the relevant references. Since each of the molecular weight of the target proteins was within 10-80 KDa except for FASN (the separation gel was prepared according to the following table), the separation gel concentration was selected to be 10%, and the concentration of the FASN protein separation gel was selected to be 6%.
# (§6) A spacer gel was formulated according to the following table, and sample loading was conducted. After completion, electrophoresis should be conducted as soon as possible, where concentration was conducted at 80 v for 30 min, and then electrophoresis was conducted at 120 v until the front edge ran to the lower edge of the separation gel, and the electrophoresis was stopped.
# 3. […]
# Bcl-1 [2] = assay: as above; settings: high dose group
# Experimental: as §1, §2, §3, §4, §5, §6
# 3. […]
# p62 [3] = assay: Q-PCR, mRNA expression in oleic acid induced HepG2 cells; settings: for mRNA level of p62: high dose group; for mRNA expression of p62: low and medium doses
# From the text: (§7) The culture, model establishment and drug treatment manners of the cells were the same as those in 1.2.4. After the completion of the treatment, the cells were collected, total RNA was extracted, then cDNA was synthesized by reverse transcription, and finally, the change of the transcription level of autophagy-related genes of the HepG2 cell in a nonalcoholic fatty liver disease model under the actions of petunidin-3-O-β-D glucoside and malvidin-3-O-β-D glucoside was detected by the real-time fluorescent quantitative PCR method, where the following method can be adopted:
# (§8) 1. After the completion of drug treatment, the cells were washed with PBS for 2 times, added with 1 mL Trizol per about 1×10^7 cells, then pipetted up and down with a 1 mL pipette gun (free of RNA enzymes) until the liquid was clear and had no cell aggregate, transferred into a […] RNA-enzyme-free EP tube, mixed well by inverting up and down for 10 times, and lysed for 5 minutes at room temperature.
# (§9) 1. The first strand of cDNA was synthesized by using 800 ng of total RNA as a template and a total system of 20 μL. A nuclease-free PCR tube in the ice bath was added with the following reagents:
# (§10) 5. A reverse transcription reaction was carried out on a PCR machine under the following conditions: incubation at 25° C. for 10 min, cDNA synthesis at 50° C. for 30 min, and reaction termination at 85° C. for 5 min. The resulting cDNA product was stored at −20° C.
# (§11) 1. According to the gene sequence provided in the literature, the primers were synthesized by Sangon Biotech (Shanghai) Co., Ltd., and the primer sequences of β-actin, APG5L, Apg7, p62 , Bcl-1 and FASN were shown in the table below:
# (§12) 2. The above reaction solution was placed into a real-time quantitative PCR instrument for amplification, and the PCR reaction conditions were as shown in the table below:
# (§13) For the expression of the target gene, the difference was corrected with a reference gene β-actin by a Ct value comparison method, and the changing multiple was 2^−ΔΔCt. The calculation formula was: the changing multiple=2^−ΔΔCt, where ΔΔCt=(Ct of the target gene−Ct of the reference gene) the drug treatment group−(Ct of the target gene−Ct of the reference gene) control.
# APGSL = assay: as above
# From the text: as §7, §8, §9, §10, §11, §12, §13
# Fas = assay: as above
# From the text: as §7, §8, §9, §10, §11, §12, §13
# APG7 = assay: as above; settings: for mRNA level of Apg7: high dose group; for mRNA expression of Apg7: low and medium doses
# From the text: as §7, §8, §9, §10, §11, §12, §13
# Bcl-1 [4] = assay: as above
# From the text: as §7, §8, §9, §10, §11, §12, §13
Compound,protein expression of p62 (p62 [1]),protein expression of Bcl-1 (Bcl-1 [2]),mRNA level of p62 (p62 [3]),mRNA expression of p62 (p62 [3]),mRNA level of APGSL (APGSL),mRNA expression level of Fas (Fas),mRNA level of Apg7 (APG7),mRNA expression of Apg7 (APG7),mRNA expression level of Bcl-1 (Bcl-1 [4])
COc1cc(-c2[o+]c3cc(O)cc(O)c3cc2O[C@@H]2O[C@H](CO)[C@@H](O)[C@H](O)[C@H]2O)cc(OC)c1O [malvidin-3-O-β-D glucoside],inhibition trend,inhibition trend,up-regulate,reduced,up-regulate,significantly decrease,up-regulate,reduced,significantly decrease
COc1cc(-c2[o+]c3cc(O)cc(O)c3cc2O[C@@H]2O[C@H](CO)[C@@H](O)[C@H](O)[C@H]2O)cc(O)c1O [petunidin-3-O-β-D glucoside],inhibition trend,inhibition trend,up-regulate,reduced,up-regulate,significantly decrease,up-regulate,reduced,significantly decrease
